For orientation: IC50 means the concentration that inhibits the measured activity by half.

Bounds are passed on as bounds.

The results in this text go back to ChEMBL document CHEMBL1134420, “Substituent effects within the DNA binding subunit of CBI analogues of the duocarmycins and CC-1065” (Bioorg Med Chem Lett, 2001).

The first assay has as its system L1210. The experiment in a line: Cytotoxic activity against L1210 leukemia cells. The following applies: Mus musculus, L1210. In kind it is functional, cell-based, Mus musculus.
`CC(=O)c1cccc2cc(C(=O)N3C[C@H]4C[C@@]45C3=CC(=O)c3ccccc35)[nH]c12` returned an IC50 of 0.3 nM. This counts as sub-nanomolar. Molecule `Cc1ccc2[nH]c(C(=O)N3C[C@H]4C[C@@]45C3=CC(=O)c3ccccc35)cc2c1` had an IC50 of 2 nM. Against the preceding molecule, the IC50 is about 6.7-fold higher. The molecule `CCCC(=O)Nc1ccc2[nH]c(C(=O)N3C[C@H]4C[C@@]45C3=CC(=O)c3ccccc35)cc2c1` gave an IC50 of 0.03 nM. Still for that read-out and setting: under `CCOc1ccc2[nH]c(C(=O)N3C[C@H]4C[C@@]45C3=CC(=O)c3ccccc35)cc2c1` stands 0.01 nM; under `CCC(=O)c1ccc2[nH]c(C(=O)N3C[C@H]4C[C@@]45C3=CC(=O)c3ccccc35)cc2c1`, 0.003 nM; under `CCCCOc1ccc2[nH]c(C(=O)N3C[C@H]4C[C@@]45C3=CC(=O)c3ccccc35)cc2c1`, 0.05 nM. On the same count and under the same terms, as for `CCCC(=O)c1ccc2[nH]c(C(=O)N3C[C@H]4C[C@@]45C3=CC(=O)c3ccccc35)cc2c1`, the figure is 0.02 nM; as for `CCCOc1ccc2[nH]c(C(=O)N3C[C@H]4C[C@@]45C3=CC(=O)c3ccccc35)cc2c1`, 0.04 nM; as for `CCC(=O)Nc1ccc2[nH]c(C(=O)N3C[C@H]4C[C@@]45C3=CC(=O)c3ccccc35)cc2c1`, 0.03 nM. Regarding `O=C1C=C2N(C(=O)c3cc4cc(Cl)ccc4[nH]3)C[C@H]3C[C@@]23c2ccccc21`, it took 0.4 nM to reach half-maximal inhibition (IC50). In turn, `COc1cccc2cc(C(=O)N3C[C@H]4C[C@@]45C3=CC(=O)c3ccccc35)[nH]c12` came in with an IC50 of 0.3 nM. Regarding `CC(=O)Nc1ccc2[nH]c(C(=O)N3C[C@H]4C[C@@]45C3=CC(=O)c3ccccc35)cc2c1`, the IC50 was 0.03 nM.

Regarding `CC(=O)N(C)c1ccc2[nH]c(C(=O)N3C[C@H]4C[C@@]45C3=CC(=O)c3ccccc35)cc2c1`, the IC50 was determined as 0.03 nM. With `N#Cc1ccc2[nH]c(C(=O)N3C[C@H]4C[C@@]45C3=CC(=O)c3ccccc35)cc2c1`, the IC50 was determined as 0.03 nM.

Regarding `COc1ccc2[nH]c(C(=O)N3C[C@H]4C[C@@]45C3=CC(=O)c3ccccc35)cc2c1`, 0.05 nM corresponded to half-maximal inhibition (IC50).

As to `C#Cc1ccc2[nH]c(C(=O)N3C[C@H]4C[C@@]45C3=CC(=O)c3ccccc35)cc2c1`, half-maximal inhibition (IC50) required 0.3 nM. `CC(=O)c1ccc2[nH]c(C(=O)N3C[C@H]4C[C@@]45C3=CC(=O)c3ccccc35)cc2c1` registered an IC50 of 0.002 nM. For the molecule `O=C1C=C2N(C(=O)c3cc4ccccc4[nH]3)C[C@H]3C[C@@]23c2ccccc21`, the IC50 is 2.7 nM. Same read-out and setting: as for `N#Cc1cccc2cc(C(=O)N3C[C@H]4C[C@@]45C3=CC(=O)c3ccccc35)[nH]c12`, the figure is 0.3 nM; as for `O=C1C=C2N(C(=O)c3cc4cc(Br)ccc4[nH]3)C[C@H]3C[C@@]23c2ccccc21`, 0.5 nM. On the same count and under the same terms, as for `O=C1C=C2N(C(=O)c3cc4cc(OCc5ccccc5)ccc4[nH]3)C[C@H]3C[C@@]23c2ccccc21`, the figure is 0.05 nM; as for `[N-]=[N+]=Nc1ccc2[nH]c(C(=O)N3C[C@H]4C[C@@]45C3=CC(=O)c3ccccc35)cc2c1`, 0.3 nM. Still for that read-out and setting: as for `CC#Cc1ccc2[nH]c(C(=O)N3C[C@H]4C[C@@]45C3=CC(=O)c3ccccc35)cc2c1`, the figure is 1 nM.

The assay is the same for the next values; noted with them: l1210.
`O=C1C=C2N(C(=O)c3cc4c(ccc5ccccc54)[nH]3)CC3CC23c2ccccc21` (stereo in doubt; 4) displayed an IC50 of 5 nM.

In turn, `O=C1C=C2N(C(=O)c3cc4cc5ccccc5cc4[nH]3)CC3CC23c2ccccc21` (stereo in doubt; 7) gave an IC50 of 400 nM. Against the preceding molecule, the IC50 is about 80-fold higher. The same measure, in the same setting: under `NC(=O)N1CCc2c1ccc1[nH]c(C(=O)N3CC4CC45C3=CC(=O)c3ccccc35)cc21` (stereo in doubt; (+)) stands 0.005 nM.

With `O=C1C=C2N(C(=O)c3cc4cc5ccccc5cc4[nH]3)CC3CC23c2ccccc21` (stereo in doubt; 6), the IC50 was found to be 0.5 nM. Compared with the last molecule, the IC50 is about 100-fold higher. Regarding `O=C1C=C2N(C(=O)c3cc4c(ccc5ccccc54)[nH]3)CC3CC23c2ccccc21` (stereo in doubt; 5), the IC50 came out at 300 nM. Same read-out and setting: under `COc1cc2cc(C(=O)N3CC4CC45C3=CC(=O)c3ccccc35)[nH]c2c(OC)c1OC` (single isomer, unassigned; (+)) stands 0.03 nM. Still for that read-out and setting: as for `NC(=O)N1CCc2c1ccc1[nH]c(C(=O)N3CC4CC45C3=CC(=O)c3ccccc35)cc21` (stereo in doubt; (-)), the figure is at least 0.38 nM. Same read-out and setting: under `COc1cc2cc(C(=O)N3CC4CC45C3=CC(=O)c3ccccc35)[nH]c2c(OC)c1OC` (stereo in doubt) stands 2 nM.
